# In ChEMBL document CHEMBL3399997 (Bioorg Med Chem Lett, 2015):
# Legend:
# Type in all cases: physicochemical
# [1] = Antioxidant activity assessed as rate constant for alkoxyl radical scavenging activity using DMPO spin trap by ESR spin-trapping method
# [2] = Antioxidant activity assessed as rate constant for superoxide anion radical scavenging activity using CYPMPO spin trap by ESR spin-trapping method
# [3] = Antioxidant activity assessed as peroxyl radical scavenging activity by measuring relative rate constant (kAOx/kST ratio) using CYPMPO spin trap by ESR spin-trapping method
# [4] = Antioxidant activity assessed as rate constant for hydroxyl radical scavenging activity using DMPO spin trap by ESR spin-trapping method
# [5] = Antioxidant activity assessed as rate constant for methyl radical scavenging activity using DMPO spin trap by ESR spin-trapping method
# [6] = Antioxidant activity assessed as rate constant for singlet oxygen radical scavenging activity using 4-HO-TEMP spin trap by ESR spin-trapping method
# [7] = Antioxidant activity assessed as alkoxyl radical scavenging activity by measuring relative rate constant (kAOx/kST ratio) using DMPO spin trap by ESR spin-trapping method
# [8] = Antioxidant activity assessed as singlet oxygen radical scavenging activity by measuring relative rate constant (kAOx/kST ratio) using 4-HO-TEMP spin trap by ESR spin-trapping method
# [9] = Antioxidant activity assessed as hydroxyl radical scavenging activity by measuring relative rate constant (kAOx/kST ratio) using DMPO spin trap by ESR spin-trapping method
# [10] = Antioxidant activity assessed as methyl radical scavenging activity by measuring relative rate constant (kAOx/kST ratio) using DMPO spin trap by ESR spin-trapping method
# [11] = Antioxidant activity assessed as superoxide anion radical scavenging activity by measuring relative rate constant (kAOx/kST ratio) using CYPMPO spin trap by ESR spin-trapping method
K [1] [×10⁴ /M/s],K [2],Ratio [3],K [4],K [5] [×10⁷ /M/s],K [6],Ratio [7],Ratio [8],Ratio [9],Ratio [10],Ratio [11],Compound
3.57,3.3 ×10⁴ /M/s,32.5,4.11 ×10¹⁰ /M/s,2.55,7.59 ×10⁶ /M/s,28.1,84.4,14.7,1.82,687,NC(Cc1ccc(O)c(O)c1)C(=O)O (racemic)
3.48,2.07 ×10⁵ /M/s,19.3,2.55 ×10⁹ /M/s,2.59,1.93 ×10⁷ /M/s,27.4,215,0.91,1.85,4308,N[C@@H](Cc1ccc(O)c(O)c1)C(=O)O [LEVODOPA]
